Measurements from patent US20260144769A1, “4-PHENYLBUTYRATE RESTORED GABA UPTAKE AND REDUCED SEIZURES IN SLC6A1 VARIANT-MEDIATED DISORDERS” (Vanderbilt University, priority 2022, published 2026).

How the values were obtained:
Experiment in all cases: 3H GABA uptake, HEK293T, mutant cDNA alone ("homozygous")
Format in all cases: cell-based
Conditions in all cases: PBA 2 mM, 24 hrs
GAT-1 S295L = molecular target: T1, GAT-1 S295L (Rattus norvegicus, UniProt P23978, S295L)
T1 construct: The coding region of rGAT-1 was inserted into pEYFP-C1 (Clontech, Palo Alto, CA); expressed in transfected cells; host or cells: HEK293T cells (A5); astrocytes from corrected human iPSCs (A25)
Experimental: (§1) GABA uptake activity was measured by the high-throughput 3H radio-labeling GABA uptake on a liquid scintillator with QuantaSmart. […] HEK293T cells were transfected with the wildtype or the mutant GAT-1^YFP cDNAs alone for 48 hr. […] HEK293T cells were transfected with the wildtype GAT-1^YFP alone or in mixture of the wildtype or the mutant cDNAs for 48 hr. In the mixed condition, the ratio of the wildtype GAT-1 with pcDNA or the mutant cDNAs are 1:1 with the total cDNA amount of 0.5 μg. […] Both wt and the mutant were normalized to its own DMSO treated conditions. 966 stands for the wildtype treated with CI-966 (50 μM) while 711 stands for NNC-711 (35 μM). (N=4-7 different transfections. In FIG. 4A and FIG. 4B, *P<0.05, **P<0.01, ***p<0.001 vs. wt 0. In FIG. C and FIG. 4D, *P<0.05, **P<0.01, ***p<0.001 vs. its own DMSO treated. In FIG. 4C, ns stands for no significance. One-way analysis of variance (ANOVA) and Newman-Keuls test. Values were expressed as mean±S.E.M.
(§2) The plasmid cDNA encoding enhanced yellow fluorescent protein (EYFP)-tagged rat GAT-1 has been previously described. The coding region of rGAT-1 was inserted into pEYFP-C1 (Clontech, Palo Alto, CA). QuikChange Site-directed Mutagenesis kit was utilized to introduce the GAT-1 variants into a wildtype GAT-1 plasmid. The product was then amplified via polymerase chain reaction, transformed using DH5a competent cells, and plated. A clone was chosen and grown overnight. All the GAT-1 variants were confirmed by DNA sequencing. Both the wildtype and the variant cDNAs were prepared with Qiagen Maxiprep kit.
(§3) Human embryonic kidney cells were cultured as monolayers in 100 mm^2 dishes. Cells were cultured in Dulbecco's Modified Eagle's Medium supplemented with 10% FBS and 1% penicillin/streptomycin in 37° C. in 5% CO2/95% air. Cells were maintained in culture medium until appropriate confluency for experimentation.
(§4) Briefly, cells were cultured in […] dishes for 3 days before the GABA uptake experiment in DMEM with 10% fetal bovine serum and 1% penicillin/streptomycin. The cells were then transfected with equal amounts of the wildtype or the mutant GAT-1 cDNAs (1 μg) for each condition at 24 hrs or 48 hrs after plating. GABA uptake assay was carried out 48 hrs after transfection. The cells were incubated with preincubation solution for 15 min and then incubated with preincubation solution containing 1 μci/mL 3H GABA and 10 μM unlabeled GABA for 30 min at room temperature. After washing, the cells were lysed with 0.25 N NaOH for 1 hr. Glacial acetic acid was added, and lysates were then determined on a liquid scintillator with QuantaSmart. The flux of GABA (pmol/μg/min) was averaged with at least triplets for each condition at each transfection. The average counting was taken as n=1. The untransfected condition was taken as a baseline that was subtracted from both the wildtype and the mutant conditions. The pmol/μg/min in the mutant was then normalized to the wildtype from each experiment, which was arbitrarily taken as 100%. The protocols for GABA reuptake assay in cultured mouse astrocytes, neuron or iPSC derived cells were modified from the GABA uptake protocol on HEK 293T cells. GAT-1 inhibitors CL-966 and NNC-711 were applied each time to make sure the radioactive counts were specific.
(§5) The working solution was stored at 4° C.

GAT-1 A288V = molecular target: T2, GAT-1 A288V (Rattus norvegicus, UniProt P23978, A288V)
T2 construct: The coding region of rGAT-1 was inserted into pEYFP-C1 (Clontech, Palo Alto, CA); expressed in transfected cells; host or cells: HEK293T cells (A4); astrocytes from corrected human iPSCs (A24)
Experimental: as §1, §2, §3, §4, §5

GAT-1 W495X = molecular target: T3, GAT-1 W495X (Rattus norvegicus, UniProt P23978)
T3 construct: expressed in transfected cells; host or cells: HEK293T cells
Experimental: as §1, §2, §3, §4, §5

GAT-1 V125M = molecular target: T4, GAT-1 V125M (Rattus norvegicus, UniProt P23978, V125M)
T4 construct: The coding region of rGAT-1 was inserted into pEYFP-C1 (Clontech, Palo Alto, CA); expressed in transfected cells; host or cells: HEK293T cells (A3); astrocytes from corrected human iPSCs (A23)
Experimental: as §1, §2, §3, §4, §5

GAT-1 D410E = molecular target: T5, GAT-1 D410E (Rattus norvegicus, UniProt P23978, D410E)
T5 construct: The coding region of rGAT-1 was inserted into pEYFP-C1 (Clontech, Palo Alto, CA); expressed in transfected cells; host or cells: HEK293T cells (A7); astrocytes from corrected human iPSCs (A27)
Experimental: as §1, §2, §3, §4, §5

GAT-1 G326R = molecular target: T6, GAT-1 G326R (Rattus norvegicus, UniProt P23978, G362R)
T6 construct: The coding region of rGAT-1 was inserted into pEYFP-C1 (Clontech, Palo Alto, CA); expressed in transfected cells; host or cells: HEK293T cells
Experimental: as §1, §2, §3, §4, §5

- GABA uptake normalized to its own DMSO treated condition (GAT-1 S295L): 1.386±0.058
- GABA uptake normalized to its own DMSO treated condition (GAT-1 A288V): 1.22±0.063
- GABA uptake normalized to its own DMSO treated condition (GAT-1 W495X): 1.323±0.054
- GABA uptake normalized to its own DMSO treated condition (GAT-1 V125M): 1.378±0.056
- GABA uptake normalized to its own DMSO treated condition (GAT-1 D410E): 1.236±0.074
- GABA uptake normalized to its own DMSO treated condition (GAT-1 G326R): 1.185±0.065
Compound: O=C(O)CCCc1ccccc1 [PBA, 4-phenylbutyric acid]
